Series [1] relates to middle cerebral artery occlusion (MCAO). Description: 60 minute transient MCAO in rats, infarcted area on TTC stained brain slices (Example 1). The class given is in vivo, rat. How it is done: Twenty female Long Evans rats underwent 60 minute transient MCAO. The rats were anesthetized, intubated and mechanically ventilated using 2% Isoflurane, available from Abbott Laboratories, North Chicago, Ill., and oxygen mixture. The left common carotid artery (CCA) and the bifurcation were exposed via midline incision. The branches of the left external carotid artery (ECA) were coagulated, and the ECA stump was mobilized inferiorly, the left pterygopalatine artery was ligated. A blunt tipped 3 cm long segment of a 3-0 monofilament nylon suture, available from Dermalone, United States Surgical, Norwalk, Conn., was introduced into the left internal carotid artery via the left ECA stump, and advanced 2.0-2.2 cm distance from the bifurcation. Then the proximal CCA was ligated temporarily. After the defined occlusion time the animal was re-anesthetized using a mask. The ligation of the CCA was released, and the suture was pulled back and removed allowing reperfusion of the occluded segment. […] The animals were sacrificed 24 h later with intracardiac injection of Pentobarbital. […] The pictures were analyzed using the Scion Image for Windows software (based on NIH Image Software for Macintosh). The non-stained area was outlined, and the area was calculated, as a percentage of the stroked hemisphere. Data were analyzed and graphed using Microsoft Excel Software. […]

Series [2] has as its system ischemia-reperfusion injuries. Description: Single high dose versus multiple low doses of NAC against ischemia-reperfusion injuries. To be noted: single high dose (400-1000 mg/kg) versus multiple low doses.
In series [3] the test system is middle cerebral artery occlusion. Briefly: Temporary (60 min) middle cerebral artery occlusion and 24 h reperfusion, total infarction volume by TTC staining (Example 2). It is filed as in vivo, rat. To be noted: for infarction volume: 60 min occlusion, 24 h reperfusion, mean ± SD.
The conditions of series [4]: rat, in vivo, iv, 1000 mg/kg.
Series [5] can be described thus: Serum NAC concentration in rats 5 min post infusion.
For another series, the system named is brain glutathione levels. To be noted: 10 g/m^2 intraperitoneally twice daily for 3 days; cited from earlier work.

With `CC(=O)N[C@@H](CS)C(=O)O` [NAC, N-acetylcysteine], for the setting “Long-Evans, rat, in vivo, iv”, the “transient decrease of mean arterial blood pressure” value was found to be 10%. For the setting “stroke animals, intravenous 400 mg NAC in 5 min infusion”, the morbidity or mortality result is recorded as “did not cause significant morbidity or mortality”. Also, the “infarction versus control group” value in series [1] (400 mg/kg i.v. 30 min before occlusion, slices 10 and 12 mm from frontal pole, significant only in last slice) is given as “the infarction was smaller”. The “infarcted area smaller than in control group (mean)” value in series [1] (400 mg/kg i.v. over 15 min starting 30 min before occlusion, slices 6 and 8 mm from frontal pole, 24 h after 60 min MCAO) is 38%. The “effectiveness in preventing or treating ischemia-reperfusion injuries” value in series [2] is reported as “more effective”. The “hematocrit after infusion (from 50%)” value in series [3] (2500 μl volume intravenous injection in 5 minutes, same for saline) came out at 30%. In addition, the values for the infarction volume in series [3] (Series A: 400 mg/kg i.v. -60 min to MCAO), in series [3] (Series B: 400 mg/kg i.v. -30 min to MCAO) and in series [3] (Series C: 400 mg/kg i.v. at reperfusion (2 min after)) were 143.40 ± 72 mm3, 176.60 ± 69 mm3 and 156.41 ± 27 mm3, respectively. Also, in series [3] (Series A: NAC 60 minutes before occlusion), the “average reduction of total calculated infarction volume versus saline treated group” value is on record as 43%. Moreover, the “average protection versus saline” value in series [3] (Series B: NAC 30 minutes before occlusion) is listed as 34%. Also, in series [3] (Series C: NAC after reperfusion, p=0.84), the “total volume of infarction versus saline treated group” value is given as “the difference was not significant”. For the same compound, in series [3] (Series D: BSO treated, glutathione depleted animals, p=0.72), the “protection in comparison to saline controls” value was “failed to provide significant protection”. For the same compound, the toxicity entry in series [4] was “No toxicity was observed”. Also, the “serum NAC concentration” value was “about 1.5 mM” in series [5] (400 mg/kg), roughly 10 mM in series [5] (1000 mg/kg) and 0.1 to 0.3 mM in series [5] (about 140 mg/kg).

Regarding `CCCCS(=N)(=O)CCC(N)C(=O)O` [BSO, L-buthionine-[S,R]-sulfoxamine], the “infarction volume in comparison to other groups” value in series [3] (3 days of BSO pretreatment) is given as “did not result in higher infarction volume”. In the series with brain glutathione levels, the “reduction of brain glutathione levels” value is “at least 50%”.

The values are drawn from patent US20040132666A1, “Administration of free radical scavengers to prevent or treat ischemia-reperfusion injuries” (Oregon Health & Science University, priority 2002, published 2004).
